Mortality data for 17 molecules are collected here from ChEMBL document CHEMBL3046172, “Synthesis and Insecticidal Activity of New 2- and 6-Substituted 4-Acetoxyquinolines” (1997).

Holding throughout (format): functional
Test [1] relates to Bombyx mori. Nature of the test: Insecticidal activity against Bombyx mori Syogetsu x Syunrei third-instar larvae assessed as insect mortality upon topical application at 3 ug measured 48 hr post compound treatment.
In test [2] the test system is Bombyx mori. The experiment in a line: Insecticidal activity against Bombyx mori Syogetsu x Syunrei third-instar larvae assessed as insect mortality upon topical application at 1 ug measured 48 hr post compound treatment.
For test [3], the system named is Bombyx mori. Nature of the test: Insecticidal activity against Bombyx mori Syogetsu x Syunrei third-instar larvae assessed as insect mortality upon topical application at 0.3 ug measured 48 hr post compound treatment.
Test [4] deals with Bombyx mori. Nature of the test: Insecticidal activity against Bombyx mori Syogetsu x Syunrei third-instar larvae assessed as insect mortality upon topical application at 10 ug measured 48 hr post compound treatment.
Test [5] relates to Spodoptera litura. Nature of the test: Insecticidal activity against Spodoptera litura third-instar larvae reared on artificial diets of Insecta LF assessed as insect mortality at 500 ppm measured 2 days post compound treatment. Conditions: 48 h.
In test [6] the test system is Spodoptera litura. The experiment in a line: Insecticidal activity against Spodoptera litura third-instar larvae reared on artificial diets of Insecta LF assessed as insect mortality at 125 ppm measured 2 days post compound treatment. Conditions: 48 h.
For test [7], the system named is Plutella xylostella. The experiment in a line: Insecticidal activity against Plutella xylostella (diamondback moth) third-instar larvae reared on cabbage plants leaves pre-treated with 250 ppm compound assessed as insect mortality measured 2 days post compound treatment.
The subject of test [8] is Plutella xylostella. The experiment in a line: Insecticidal activity against Plutella xylostella (diamondback moth) third-instar larvae reared on cabbage plants leaves pre-treated with 1000 ppm compound assessed as insect mortality measured 2 days post compound treatment.
The test system of test [9] is Plutella xylostella. The experiment in a line: Insecticidal activity against Plutella xylostella (diamondback moth) third-instar larvae reared on cabbage plants leaves pre-treated with 500 ppm compound assessed as insect mortality measured 2 days post compound treatment.
Test [10] relates to Spodoptera litura. Nature of the test: Insecticidal activity against Spodoptera litura third-instar larvae reared on artificial diets of Insecta LF assessed as insect mortality at 250 ppm measured 2 days post compound treatment. Conditions: 48 h.
In test [11] the test system is Bombyx mori. Nature of the test: Insecticidal activity against Bombyx mori Gunpo x Shugyoku third-instar larvae assessed as insect mortality upon topical application at 10 ug measured 48 hr post compound treatment.

One may read the mortality as the share of the test organisms that died. `CC(=O)Oc1c(C)c(C)nc2ccc(F)cc12`: the figures for the mortality in the test with Bombyx mori [1], in the test on Bombyx mori [2] and with Bombyx mori [3] were 100%, 95% and 0%, respectively.
The corresponding values for `CCCCCCC/C=C/c1nc2ccccc2c(OC(C)=O)c1C` are 100%, 76% and 70%.
With `CCCc1nc2ccccc2c(OC(C)=O)c1C`, the mortality in the test on Bombyx mori [4] and in the test on Bombyx mori [1] was 0% throughout.
Take `CCCCCCC/C=C\c1nc2ccc(F)cc2c(OC(C)=O)c1C`: the mortality with Bombyx mori [4] amounted to 100%; in the test on Bombyx mori [1] it was 100%; in the test with Bombyx mori [2], 10%; in the test on Bombyx mori [3], 0%.
`CCc1nc2ccc(F)cc2c(OC(C)=O)c1C`: the results for the mortality at 500 ppm with Spodoptera litura [5] and with Plutella xylostella [9] were 100% and 70%, respectively. Besides, the mortality at 125 ppm in the test on Spodoptera litura [6] was 55%. The mortality at 250 ppm was 42.5% in the test with Plutella xylostella [7] and 90% in the test with Spodoptera litura [10]. Also, the mortality at 1000 ppm with Plutella xylostella [8] is 97.5%. Further, the figures for the mortality with Bombyx mori [2] and with Bombyx mori [3] were 100% and 70%, respectively.
Consider `CCCCc1nc2ccccc2c(OC(C)=O)c1C`, for which the mortality in the test on Bombyx mori [4] is 95%; in the test with Bombyx mori [1], 35%.
Consider `CCCCCCCCCc1nc2ccccc2c(OC(C)=O)c1C`, for which the mortality in the test with Bombyx mori [4] came to 100%; in the test with Bombyx mori [1] it was 100%; in the test with Bombyx mori [2], 15%.
With `CCCCCCC/C=C/c1nc2ccc(F)cc2c(OC(C)=O)c1C`, the mortality in the test on Bombyx mori [4] is 0%.
As for `CCCCCCc1nc2ccc(F)cc2c(OC(C)=O)c1C`, the mortality was 75% in the test on Bombyx mori [4], 60% with Bombyx mori [1] and 0% in the test on Bombyx mori [2].
As for `C=Cc1nc2ccccc2c(OC(C)=O)c1C`, the mortality with Bombyx mori [11] was found to be 0%.
For `CCc1nc2ccccc2c(OC(C)=O)c1C`, the values for the mortality in the test on Bombyx mori [1], in the test on Bombyx mori [2] and in the test on Bombyx mori [3] were 100%, 95% and 0%, respectively.
For the molecule `CC(=O)Oc1c(C)c(C)nc2ccccc12`, the mortality with Bombyx mori [4] is 100%; in the test on Bombyx mori [1], 71%; with Bombyx mori [2], 0%.
Taken in the same sequence, the figures for `CCCCCCc1nc2ccccc2c(OC(C)=O)c1C` were 100%, 100% and 10%.
For the molecule `C/C=C/c1nc2ccccc2c(OC(C)=O)c1C`, the mortality with Bombyx mori [4] is recorded as 0%.
On the same count and under the same terms, under `CCCCCCCCCc1nc2ccc(F)cc2c(OC(C)=O)c1C` stands 10%.
For the molecule `CCCCCCCc1nc2ccccc2c(OC(C)=O)c1C`, the mortality with Bombyx mori [4] worked out at 100%; in the test on Bombyx mori [1], 100%; in the test on Bombyx mori [2], 10%; in the test with Bombyx mori [3], 0%.
Turning to `CCCCCc1nc2ccccc2c(OC(C)=O)c1C`, the mortality in the test with Bombyx mori [4] came to 100%; with Bombyx mori [1], 40%; with Bombyx mori [2], 0%.
